Test results taken from patent US10030016B2 (Sunesis Pharmaceuticals, Inc., priority 2009, dated 2018).
Structures can show the parent of a compound that is named as a salt. Where two headings read alike, the source gives them in different places.

Legend:
PDK1 = PDK1 (Homo sapiens (Human), UniProt O15530); assay: PDK1 kinase assay (coupled PDK1/AKT/FAM-crosstide assay, IMAP fluorescence polarization); assay type: biochemical
Procedure, shortened: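 GST-tagged human PDK1 (aa 51-359, 0.75 nM) from insect cells activated unphosphorylated GST-AKT2 (aa 140-467–PIFtide fusion, 10 nM), which phosphorylated 100 nM FAM-crosstide; 40 μM ATP, pH 7.2 Tris/MgCl2, 30 min at 25° C. IMAP fluorescence polarization read-out; ΔmP versus compound concentration fitted with a 4-parameter curve.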

[1] = test system: phospho-akt (Thr308) in PC-3 cells; assay: Inhibition of phospho-akt (Thr308) in PC-3 cells, MSD phospho-akt 308 ELISA kit; assay type: cell-based; settings: 2 hours, no serum, read-out: EC50
Procedure, shortened: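 Electrochemiluminescent MSD ELISA of Thr308-phosphorylated Akt after a 2 h serum-free compound exposure of PC-3 cells (15,000/well, plated overnight). Controls: DMSO (high), 5 μM wortmannin (low). Lysate binding overnight at 4 °C; detection antibody 1 h at room temperature.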

[2] = Homo sapiens, inhibition of P308 Akt in PC-3 cells using MSD
[3] = inhibition of phospo-PDK1 in vitro
[4] = Homo sapiens, inhibition of P308 Akt in PC-3 cells, MSD
[5] = Homo sapiens, PC-3, 2 h, inhibition of P308 Akt in PC-3 cells, MSD

PDK1, sequence (O15530 51-359): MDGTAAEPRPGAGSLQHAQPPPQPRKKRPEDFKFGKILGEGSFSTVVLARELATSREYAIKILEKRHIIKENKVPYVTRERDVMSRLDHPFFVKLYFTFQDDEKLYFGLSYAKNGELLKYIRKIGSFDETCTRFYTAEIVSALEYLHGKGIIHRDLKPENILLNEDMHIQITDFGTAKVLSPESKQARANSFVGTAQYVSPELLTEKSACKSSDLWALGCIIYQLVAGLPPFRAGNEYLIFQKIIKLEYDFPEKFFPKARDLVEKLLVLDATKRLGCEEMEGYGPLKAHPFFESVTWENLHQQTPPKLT

SMILES | IC50 (PDK1; inhibition of PDK1 in vitro) | EC50 [1, 2] | IC50 (PDK1; [3]) | also measured
CN1CCN(Cc2ccc(NC(=O)c3cc(C(F)(F)F)cnc3NCc3ccc(-c4cnc5[nH]nc(N)c5c4)cc3)cc2)CC1 [Example 285, 2-(4-(3-amino-1H-pyrazolo [3,4-b]pyridin-5-yl)benzylamino)-N-(4-((4-methylpiperazin-1-yl)methyl)phenyl)-5-(trifluoromethyl)nicotinamide] | 1000 to 5000 nM | > 10000 nM | – | –
Nc1ncnc2c1c(-c1ccc(CNc3ncc(C(F)(F)F)cc3C(=O)Nc3ccc(F)cc3)cc1)cn2C1COC1 [Example 443, 2-(4-(4-amino-7-(oxetan-3-yl)-7H-pyrrolo[2,3-d]pyrimidin-5-yl)benzylamino)-N-(4-fluorophenyl)-5-(trifluoromethyl)nicotinamide] | – | < 1000 nM | < 100 nM | –
O=C(NCc1ccc(F)c(F)c1)c1cccnc1NCc1ccc(-c2cnc3[nH]ncc3c2)nc1 [Example 327] | < 100 nM | 1000 to 10000 nM | – | –
Cn1cc(-c2ccc(CNc3ncc(C(F)(F)F)cc3C(=O)Nc3ccc(F)cc3)cn2)c2c(N)ncnc21 [Example 56, 2-(((6-(4-amino-7-methyl-7H-pyrrolo[2,3-d]pyrimidin-5-yl)pyridin-3-yl)methyl)amino)-N-(4-fluorophenyl)-5-(trifluoromethyl)nicotinamide] | < 100 nM | < 1000 nM | – | –
C#Cc1cnc(NCc2ccc(-c3ccc4ncnc(N)c4c3)s2)c(C(=O)NCc2ccc(F)c(F)c2)c1 [Ex. 8.10, 2-(((5-(4-aminoquinazolin-6-yl)thiophen-2-yl)methyl)amino)-N-(3,4-difluorobenzyl)-5-ethynylnicotinamide] | – | – | < 100 nM | EC50 [1, 4]: < 1000 nM
Nc1n[nH]c2ncc(-c3ccc(CNc4ncc(C(F)(F)F)cc4C(=O)NCC4CC4)cc3)cc12 [Example 272, 2-(4-(3-amino-1H-pyrazolo [3,4-b]pyridin-5-yl)benzylamino)-N-(cyclopropylmethyl)-5-(trifluoromethyl) nicotinamide] | 100 to 1000 nM | 1000 to 10000 nM | – | –
CN1CCN(Cc2cccc(NC(=O)c3cc(C(F)(F)F)cnc3NCc3ccc(-c4cnc5[nH]nc(N)c5c4)cc3)c2)CC1 [Example 440, 2-(4-(3-amino-1H-pyrazolo[3,4-b]pyridin-5-yl)benzylamino)-N-(3-((4-methylpiperazin-1-yl)methyl)phenyl)-5-(trifluoromethyl)nicotinamide] | 100 to 1000 nM | 1000 to 10000 nM | – | –
N#Cc1cnc(NCc2ccc(-c3c[nH]c4ncnc(N)c34)cc2)c(-c2ncco2)c1 [Example 43, 6-(4-(4-amino-7H-pyrrolo[2,3-d]pyrimidin-5-yl)benzylamino)-5-(oxazol-2-yl)nicotinonitrile] | 1000 to 5000 nM | 1000 to 10000 nM | – | –
Nc1ncnc2[nH]nc(-c3ccc(CNc4ncc(C(F)(F)F)cc4C(=O)NCc4ccc(F)c(F)c4)cc3)c12 [Example 329, 2-[4-(4-Amino-1H-pyrazolo [3,4-d]pyrimidin-3-yl)-benzylamino]-N-(3,4-difluoro-benzyl)-5-trifluoromethyl-nicotinamide] | < 100 nM | < 1000 nM | – | –
C[C@H](NC(=O)c1cc(C#N)cnc1NCc1ccc(-c2ccc(N)nc2)cc1F)c1ccc(F)cc1 [Example 128] | < 100 nM | 1000 to 10000 nM | – | –
C#CCNC(=O)c1cccnc1NCc1cc(OC(C)C)cc(-c2c[nH]c3ncc(C(=O)NC4CC4)cc23)c1 [Example 4.1.16, N-cyclopropyl-3-[3-(propan-2-yloxy)-5-({[3-(prop-2-yn-1-ylcarbamoyl)pyridin-2-yl]amino}methyl)phenyl]-1H-pyrrolo[2,3-b] pyridine-5-carboxamide] | – | – | 100 to 1000 nM | EC50 [1, 4]: 1000 to 10000 nM
O=C(NCc1ccc(F)c(F)c1)c1cc(C(F)(F)F)cnc1NCc1ccc(-c2cnc3[nH]ncc3c2)cc1 [Example 2.37] | – | – | < 100 nM | EC50 [1, 4]: < 1000 nM
Nc1ncnc2ccc(-c3ccc(CNc4ncccc4C(=O)Nc4ccc(F)cc4)s3)cc12 [Example 3.47, 2-({[5-(4-aminoquinazolin-6-yl)thiophen-2-yl]methyl}amino)-N-(4-fluorophenyl)pyridine-3-carboxamide (TFA salt)] | – | – | 100 to 1000 nM | EC50 [1, 4]: < 1000 nM
C[C@H](NC(=O)c1cccnc1NCc1ccc(-c2ccc3ncc(-n4ccnc4)nc3c2)s1)c1ccc(F)c(F)c1 [Example 4.29, (S)-2-(((5-(3-(1H-imidazol-1-yl)quinoxalin-6-yl)thiophen-2-yl)methyl)amino)-N-(1-(3,4-difluorophenyl)ethyl) nicotinamide] | – | – | > 5000 nM | EC50 [1, 4]: > 10000 nM
Cn1cnc2cnc(-c3ccc(CNc4nc5ccccc5cc4C(=O)NCc4ccc(F)c(F)c4)s3)cc21 [Example 8.14.2, N-(3,4-difluorobenzyl)-2-({[5-(1-methyl-1H-imidazo [4,5-c]pyridin-6-yl)thiophen-2-yl]methyl}amino)quinoline-3-carboxamide] | – | – | > 5000 nM | EC50 [1, 4]: > 10000 nM
C[C@H](NC(=O)c1cccnc1NCc1ncc(-c2ccc3ncc4ncn(C)c4c3c2)s1)c1ccc(F)c(F)c1 [Example 385, N-[(S)-1-(3,4-Difluoro-phenyl)-ethyl]-2-{[5-(1-methyl-1H-imidazo[4,5-c]quinolin-8-yl)-thiazol-2-ylmethyl]-amino}-nicotinamide] | < 100 nM | < 1000 nM | – | –
N#Cc1cnc(NCc2ccc(-c3cnc4[nH]c(=O)[nH]c4c3)cc2)c(C(=O)NCc2ccc(F)c(F)c2)n1 [Example 364, 6-cyano-N-(3,4-difluorobenzyl)-3-(4-(2-oxo-2,3-dihydro-1H-imidazo[4,5-b]pyridin-6-yl)benzylamino)pyrazine-2-carboxamide] | < 100 nM | < 1000 nM | – | –
C[C@H](NC(=O)c1cc(C#N)cnc1NCc1ccc(-c2cnc(NCCCN(C)C)cn2)cc1)c1ccc(F)cc1 [Example 225, 5-Cyano-2-{4-[5-(3-dimethylamino-propylamino)-pyrazin-2-yl]-benzylamino}-N-[(S)-1-(4-fluoro-phenyl)-ethyl]-nicotinamide] | > 5000 nM | > 10000 nM | – | –
Nc1n[nH]c2ncc(-c3ccc(CNc4ncc(C(F)(F)F)cc4C(=O)Nc4ccccc4)cc3)cc12 [Example 292, 2-(4-(3-amino-1H-pyrazolo [3,4-b]pyridin-5-yl)benzylamino)-N-phenyl-5-(trifluoromethyl)nicotinamide] | < 100 nM | < 1000 nM | – | –
CNC(=O)C[C@@H](Nc1ncc(C#N)cc1C(=O)N[C@@H](C)c1ccc(F)cc1)c1ccc(-c2c[nH]c3ncnc(N)c23)cc1 [Example 47, 2-((R)-1-(4-(4 - amino-7H-pyrrolo[2,3-d]pyrimidin-5-yl)phenyl)-3-(methylamino)-3-oxopropylamino)-5-cyano-N-((S)-1-(4-fluorophenyl)ethyl)nicotinamide] | < 100 nM | > 10000 nM | – | –
Cn1cnc2cnc(-c3ccc(CNc4ncccc4C(=O)NCc4ccc(F)c(F)c4)s3)cc21 [Example 8.14.3, N-(3,4-difluorobenzyl)-2-({[5-(1-methyl-1H-imidazo [4,5-c]pyridin-6-yl)thiophen-2-yl]methyl}amino)pyridine-3-carboxamide] | – | – | > 5000 nM | EC50 [1, 4]: 1000 to 10000 nM
O=C(NCc1ccc(F)cc1)c1cccnc1NCc1ccc(-c2c[nH]c3ncccc23)s1 [Example 1.16, 2-(((5-(1H-pyrrolo[2,3-b]pyridin-3-yl)thiophen-2-yl)methyl)amino)-N-(4-fluorobenzyl)nicotinamide] | – | – | 100 to 1000 nM | EC50 [1, 5]: > 10000 nM
C[C@H](NC(=O)c1cccnc1NCc1ccc(-c2ccc3ncnc(N)c3c2)s1)c1ccc(F)c(F)c1 [Example 3.41, (S)-2-(((5-(4-aminoquinazolin-6-yl)thiophen-2-yl)methyl)amino)-N-(1-(3,4-difluorophenyl)ethyl) nicotinamide (TFA salt)] | – | – | < 100 nM | EC50 [1, 5]: < 1000 nM
C[C@H](NC(=O)c1cc(C#N)cnc1NCc1ccc(-c2c[nH]c3ncnc(N)c23)c(F)c1)c1ccc(F)cc1 [Example 100, (S)-2-(4-(4-amino-7H-pyrrolo[2,3-d]pyrimidin-5-yl)-3-fluorobenzylamino)-5-cyano-N-(1-(4-fluorophenyl)ethyl) nicotinamide] | < 100 nM | – | – | EC50 ([1]; inhibition of P308 Akt in PC-3 cells using MSD): 1000 to 10000 nM
C[C@H](NC(=O)c1cccnc1NCc1ccc(-c2cn(C3CCC3)c3ncnc(N)c23)cc1)c1ccc(F)cc1 [Example 346, (S)-2-(4-(4-amino-7-cyclobutyl-7H-pyrrolo [2,3-d]pyrimidin-5-yl)benzylamino)-N-(1-(4-fluorophenyl)ethyl)nicotinamide] | 100 to 1000 nM | – | – | EC50 ([1]; Homo sapiens, PC-3, 2 h, inhibition of P308 Akt in PC-3 cells using MSD): < 1000 nM
Nc1n[nH]c2ncc(-c3ccc(CNc4ncc(C(F)(F)F)cc4C(=O)NC4CC4)cc3)cc12 [Example 260, 2-(4-(3-amino-1H-pyrazolo[3,4-b]pyridin-5-yl)benzylamino)-N-cyclopropyl-5-(trifluoromethyl)nicotinamide] | 100 to 1000 nM | 1000 to 10000 nM | – | –
C[C@H](COc1ccc2c(c1)NC(=O)/C2=C\c1cnc[nH]1)Nc1ncccc1C(=O)NCc1ccc(F)c(F)c1 [Example 24, (R,Z)-2-(1-(3-((1H-imidazol-5-yl)methylene)-2-oxoindolin-6-yloxy)propan-2-ylamino)-N-(3,4-difluorobenzyl)nicotinamide] | – | – | < 100 nM | EC50 [1, 4]: 1000 to 10000 nM
